Values quoted from earlier work, collected in patent US7632837B2, “Bicyclic heterocycles as cannabinoid-1 receptor modulators” (Bristol-Myers Squibb Company, priority 2005, dated 2009).

Assays:
[1] = chronic administration for two weeks
[2] = 16 week trial period; published Phase IIb data

Row | SMILES | body weight [1] | body weight in human subjects [2]
1 | Cc1c(C(=O)NN2CCCCC2)nn(-c2ccc(Cl)cc2Cl)c1-c1ccc(I)cc1 [AM-251] | substantial body weight reduction | –
2 | Cc1c(C(=O)NN2CCCCC2)nn(-c2ccc(Cl)cc2Cl)c1-c1ccc(Cl)cc1 [SR-141716] | – | dose-dependently reduced body weight
